Measurements published in article PMC5218480 (PLoS ONE, 2017).

System: MV-4-11 cells
Experiment: Gene expression microarray analysis (Affymetrix PrimeView) and GSEA
Type: cell-based, human
Design: RFU PODN (11730768_x_at) / Fold change /veh PODN (11730768_x_at) / RFU LINC00158 (11744669_a_at) / Fold change /veh LINC00158 (11744669_a_at) / RFU DUSP10 (11751237_a_at) / Fold change /veh DUSP10 (11751237_a_at) / RFU ID3 (11757404_x_at) / Fold change /veh ID3 (11757404_x_at) / RFU PLEKHG5 (11737974_s_at) / Fold change /veh PLEKHG5 (11737974_s_at) / RFU LRRC4B (11730491_at) / Fold change /veh LRRC4B (11730491_at) / RFU GIMAP4 (11747438_a_at) / Fold change /veh GIMAP4 (11747438_a_at) / RFU KRT8 (11758183_x_at) / Fold change /veh KRT8 (11758183_x_at) / RFU CNN1 (11734310_a_at) / Fold change /veh CNN1 (11734310_a_at) / RFU VPS37D (11726825_at) / Fold change /veh VPS37D (11726825_at) / RFU C10orf10 (11716522_x_at) / Fold change /veh C10orf10 (11716522_x_at) / RFU KIR2DL2 /// KIR2DL4 /// KIR2DL5A /// KIR2DL5B /// KIR2DS1 /// KIR2DS2 /// KIR2DS3 /// KIR2DS4 /// KIR3DL3 /// KIR3DL3 /// KIR3DS1 (11738374_at) / Fold change /veh KIR2DL2 /// KIR2DL4 /// KIR2DL5A /// KIR2DL5B /// KIR2DS1 /// KIR2DS2 /// KIR2DS3 /// KIR2DS4 /// KIR3DL3 /// KIR3DL3 /// KIR3DS1 (11738374_at) / RFU C1QL1 (11718748_at) / Fold change /veh C1QL1 (11718748_at) / RFU TMPRSS4 (11747572_a_at) / Fold change /veh TMPRSS4 (11747572_a_at) / RFU HAMP (11756126_x_at) / Fold change /veh HAMP (11756126_x_at) / RFU RNFT2 (11725882_a_at) / Fold change /veh RNFT2 (11725882_a_at) / RFU NR4A2 (11747474_a_at) / Fold change /veh NR4A2 (11747474_a_at) / RFU ABCC12 (11746883_a_at) / Fold change /veh ABCC12 (11746883_a_at) / RFU TMEM136 (11760407_x_at) / Fold change /veh TMEM136 (11760407_x_at) / RFU CLDN22 /// WWC2 (11732394_at) / Fold change /veh CLDN22 /// WWC2 (11732394_at) / RFU HLA-DPB1 (11760878_x_at) / Fold change /veh HLA-DPB1 (11760878_x_at) / RFU SPINT1 (11716480_a_at) / Fold change /veh SPINT1 (11716480_a_at) / RFU GAP43 (11754022_s_at) / Fold change /veh GAP43 (11754022_s_at) / RFU A4GNT (11735810_at) / Fold change /veh A4GNT (11735810_at) / RFU PRB3 (11715151_x_at) / Fold change /veh PRB3 (11715151_x_at) / RFU TUBB4B (11761932_at) / Fold change /veh TUBB4B (11761932_at) / RFU CAPN14 (11732068_a_at) / Fold change /veh CAPN14 (11732068_a_at) / RFU TMCC2 (11721928_a_at) / Fold change /veh TMCC2 (11721928_a_at) / RFU IRGQ (11745062_a_at) / Fold change /veh IRGQ (11745062_a_at) / RFU FAM174B (11720279_a_at) / Fold change /veh FAM174B (11720279_a_at) / RFU TMPRSS4 (11748680_a_at) / Fold change /veh TMPRSS4 (11748680_a_at) / RFU FAM212B (11763350_a_at) / Fold change /veh FAM212B (11763350_a_at) / RFU PLEKHG5 (11743358_a_at) / Fold change /veh PLEKHG5 (11743358_a_at) / RFU ZSCAN30 (11745921_a_at) / Fold change /veh ZSCAN30 (11745921_a_at) / RFU CMKLR1 (11741424_a_at) / Fold change /veh CMKLR1 (11741424_a_at) / RFU LOC101060620 /// MAPK8IP1 (11723275_at) / Fold change /veh LOC101060620 /// MAPK8IP1 (11723275_at) / RFU SPTSSB (11747773_x_at) / Fold change /veh SPTSSB (11747773_x_at) / RFU PRSS12 (11739890_at) / Fold change /veh PRSS12 (11739890_at) / RFU BIN1 (11741810_x_at) / Fold change /veh BIN1 (11741810_x_at) / RFU WNT11 (11732464_a_at) / Fold change /veh WNT11 (11732464_a_at) / RFU C10orf10 (11716521_a_at) / Fold change /veh C10orf10 (11716521_a_at) / RFU C5orf56 (11738089_at) / Fold change /veh C5orf56 (11738089_at) / RFU CYB561 (11721691_x_at) / Fold change /veh CYB561 (11721691_x_at) / RFU ANKRD19P (11752326_a_at) / Fold change /veh ANKRD19P (11752326_a_at) / RFU OR2T12 /// OR2T33 /// OR2T8 (11738714_s_at) / Fold change /veh OR2T12 /// OR2T33 /// OR2T8 (11738714_s_at) / RFU VCAN (11748164_a_at) / Fold change /veh VCAN (11748164_a_at) / RFU JSRP1 (11732532_at) / Fold change /veh JSRP1 (11732532_at) / RFU KRTAP10-11 (11738290_x_at) / Fold change /veh KRTAP10-11 (11738290_x_at) / RFU MYO3A (11730013_a_at) / Fold change /veh MYO3A (11730013_a_at) / RFU EBF3 (11725865_a_at) / Fold change /veh EBF3 (11725865_a_at) / RFU CAMK2N1 (11719241_x_at) / Fold change /veh CAMK2N1 (11719241_x_at) / RFU C5orf56 (11738088_a_at) / Fold change /veh C5orf56 (11738088_a_at) / RFU OLFML3 (11715873_a_at) / Fold change /veh OLFML3 (11715873_a_at) / RFU LOC100653217 /// NTM (11731650_a_at) / Fold change /veh LOC100653217 /// NTM (11731650_a_at) / RFU MAPK11 (11762145_a_at) / Fold change /veh MAPK11 (11762145_a_at) / RFU FIZ1 (11724087_x_at) / Fold change /veh FIZ1 (11724087_x_at) / RFU OASL (11726364_x_at) / Fold change /veh OASL (11726364_x_at) / RFU SOX15 (11748057_x_at) / Fold change /veh SOX15 (11748057_x_at) / RFU CD79A (11719716_a_at) / Fold change /veh CD79A (11719716_a_at) / RFU HIST1H1D (11736915_at) / Fold change /veh HIST1H1D (11736915_at) / RFU CASKIN2 (11723855_a_at) / Fold change /veh CASKIN2 (11723855_a_at) / RFU LOC730098 (11760151_x_at) / Fold change /veh LOC730098 (11760151_x_at) / RFU OR4N2 (11742367_at) / Fold change /veh OR4N2 (11742367_at) / RFU PRRT2 (11749266_a_at) / Fold change /veh PRRT2 (11749266_a_at) / RFU SNX32 (11753110_a_at) / Fold change /veh SNX32 (11753110_a_at) / RFU CDHR5 (11726645_a_at) / Fold change /veh CDHR5 (11726645_a_at) / RFU RCAN1 (11760418_a_at) / Fold change /veh RCAN1 (11760418_a_at) / RFU FAM167A (11723789_a_at) / Fold change /veh FAM167A (11723789_a_at) / RFU FAM26E (11764081_at) / Fold change /veh FAM26E (11764081_at) / RFU ISYNA1 (11749810_s_at) / Fold change /veh ISYNA1 (11749810_s_at) / RFU ACY1 (11761880_at) / Fold change /veh ACY1 (11761880_at) / RFU 11764098_at / Fold change /veh 11764098_at / RFU SAMD14 (11745864_x_at) / Fold change /veh SAMD14 (11745864_x_at) / RFU NPB (11741838_a_at) / Fold change /veh NPB (11741838_a_at) / RFU TMPRSS6 (11731388_a_at) / Fold change /veh TMPRSS6 (11731388_a_at) / RFU KRTAP10-2 (11738614_at) / Fold change /veh KRTAP10-2 (11738614_at) / RFU ARHGAP8 /// PRR5-ARHGAP8 (11727945_x_at) / Fold change /veh ARHGAP8 /// PRR5-ARHGAP8 (11727945_x_at) / RFU KRTAP5-7 /// NADSYN1 (11734609_at) / Fold change /veh KRTAP5-7 /// NADSYN1 (11734609_at) / RFU RASL12 (11751679_a_at) / Fold change /veh RASL12 (11751679_a_at) / RFU CDKN2B (11736163_a_at) / Fold change /veh CDKN2B (11736163_a_at) / RFU PRF1 (11729649_at) / Fold change /veh PRF1 (11729649_at) / RFU, ZNF638 /// ZNF638-IT1 / Fold change vs veh, ZNF638 /// ZNF638-IT1 / RFU, PANK3 / Fold change vs veh, PANK3 / RFU, SH3YL1 / Fold change vs veh, SH3YL1 / RFU, ZEB2 / Fold change vs veh, ZEB2 / RFU, NRIP1 / Fold change vs veh, NRIP1 / RFU, PTTG1IP / Fold change vs veh, PTTG1IP / RFU, CAPN2 / Fold change vs veh, CAPN2 / RFU, MED14 / Fold change vs veh, MED14 / RFU, SNORA58 / Fold change vs veh, SNORA58 / RFU, C1orf63 / Fold change vs veh, C1orf63 / RFU, LRRFIP1 / Fold change vs veh, LRRFIP1 / RFU, NDUFAF7 / Fold change vs veh, NDUFAF7 / RFU, SLC12A2 / Fold change vs veh, SLC12A2 / RFU, IBTK / Fold change vs veh, IBTK / RFU, ESF1 / Fold change vs veh, ESF1 / Fold change vs veh, TMEM50B / RFU, TAOK1 / Fold change vs veh, TAOK1 / RFU, ACBD3 / Fold change vs veh, ACBD3 / RFU, TMA16 / Fold change vs veh, TMA16 / RFU, RWDD3 / Fold change vs veh, RWDD3 / RFU, BCAT1 / Fold change vs veh, BCAT1 / RFU, EDEM3 / Fold change vs veh, EDEM3 / RFU, TMEM33 / Fold change vs veh, TMEM33 / RFU, WDR75 / Fold change vs veh, WDR75 / RFU, AHCTF1 / Fold change vs veh, AHCTF1 / RFU, TFRC / Fold change vs veh, TFRC / RFU, ZDHHC17 / Fold change vs veh, ZDHHC17 / RFU, NOM1 / Fold change vs veh, NOM1 / RFU, ARL8B / Fold change vs veh, ARL8B / RFU, ZBTB11 / Fold change vs veh, ZBTB11 / RFU, TAMM41 / Fold change vs veh, TAMM41 / RFU, KIAA1704 /// LOC100996395 / Fold change vs veh, KIAA1704 /// LOC100996395 / RFU, ING1 / Fold change vs veh, ING1 / RFU, TRMT61B / Fold change vs veh, TRMT61B / RFU, FUBP3 / Fold change vs veh, FUBP3 / RFU, TP53 / Fold change vs veh, TP53 / RFU, TNKS2 / Fold change vs veh, TNKS2 / RFU, ZFP14 / Fold change vs veh, ZFP14 / RFU, ACTR2 / Fold change vs veh, ACTR2 / RFU, PPP3R1 / Fold change vs veh, PPP3R1 / RFU, PIK3R1 / Fold change vs veh, PIK3R1 / RFU, HNRNPA1 / Fold change vs veh, HNRNPA1 / RFU, RNF170 / Fold change vs veh, RNF170 / RFU, ZNF28 / Fold change vs veh, ZNF28 / RFU, RNGTT / Fold change vs veh, RNGTT / RFU, OGT / Fold change vs veh, OGT / RFU, BRD1 / Fold change vs veh, BRD1 / RFU, MARS / Fold change vs veh, MARS / RFU, ZNF655 / Fold change vs veh, ZNF655 / RFU, FAHD1 / Fold change vs veh, FAHD1 / RFU, BDP1 / Fold change vs veh, BDP1 / RFU, LRRCC1 / Fold change vs veh, LRRCC1 / RFU, ARID1A / Fold change vs veh, ARID1A / RFU, ZNF146 / Fold change vs veh, ZNF146 / RFU, ZNF330 / Fold change vs veh, ZNF330 / RFU, GPN3 / Fold change vs veh, GPN3 / RFU, C9orf123 / Fold change vs veh, C9orf123 / RFU, N4BP2L2 / Fold change vs veh, N4BP2L2 / RFU, ARFIP1 / Fold change vs veh, ARFIP1 / RFU, FAM179B / Fold change vs veh, FAM179B / RFU, BCL10 / Fold change vs veh, BCL10 / RFU, UHRF1BP1L / Fold change vs veh, UHRF1BP1L / RFU, BET1 / Fold change vs veh, BET1 / RFU, CNOT2 / Fold change vs veh, CNOT2 / RFU, ZNF268 / Fold change vs veh, ZNF268 / Fold change vs veh, ZNF507 / RFU, DGCR2 / Fold change vs veh, DGCR2 / RFU, WDSUB1 / Fold change vs veh, WDSUB1 / Fold change vs veh, HSP90B1 /// MIR3652 / RFU, ADSS / Fold change vs veh, ADSS / RFU, GK / Fold change vs veh, GK / RFU, ZNF148 / Fold change vs veh, ZNF148 / RFU, TAF9 / Fold change vs veh, TAF9 / RFU, SLC1A5 / Fold change vs veh, SLC1A5 / RFU, SLMO2 / Fold change vs veh, SLMO2 / RFU, ABCC4 / Fold change vs veh, ABCC4 / RFU, LOC101060439 /// RAP1B / Fold change vs veh, LOC101060439 /// RAP1B / RFU, RFX7 / Fold change vs veh, RFX7 / RFU, GTPBP10 / Fold change vs veh, GTPBP10 / RFU, CNEP1R1 / Fold change vs veh, CNEP1R1 / RFU, BIVM-ERCC5 /// ERCC5 / Fold change vs veh, BIVM-ERCC5 /// ERCC5 / RFU, ILF3 / Fold change vs veh, ILF3 / RFU 11762660_at / Fold change /veh 11762660_at / RFU VCAN (11757783_s_at) / Fold change /veh VCAN (11757783_s_at) / RFU DDX43 (11728927_at) / Fold change /veh DDX43 (11728927_at) / RFU KRT8 (11758188_x_at) / Fold change /veh KRT8 (11758188_x_at) / RFU NKD1 (11759106_at) / Fold change /veh NKD1 (11759106_at) / RFU SRD5A1 (11742802_a_at) / Fold change /veh SRD5A1 (11742802_a_at) / RFU TPSAB1 /// TPSB2 (11721975_s_at) / Fold change /veh TPSAB1 /// TPSB2 (11721975_s_at) / RFU GSTM3 (11746129_a_at) / Fold change /veh GSTM3 (11746129_a_at) / RFU IL23R (11737362_x_at) / Fold change /veh IL23R (11737362_x_at) / RFU TMEM51 (11727254_a_at) / Fold change /veh TMEM51 (11727254_a_at) / RFU PIWIL2 (11732686_x_at) / Fold change /veh PIWIL2 (11732686_x_at) / RFU ORM1 (11744905_x_at) / Fold change /veh ORM1 (11744905_x_at) / RFU CCDC152 (11743942_at) / Fold change /veh CCDC152 (11743942_at) / RFU ECM1 (11717891_a_at) / Fold change /veh ECM1 (11717891_a_at) / RFU IL23R (11748794_a_at) / Fold change /veh IL23R (11748794_a_at) / RFU TNFAIP8L3 (11732012_x_at) / Fold change /veh TNFAIP8L3 (11732012_x_at) / RFU MBOAT4 (11741988_at) / Fold change /veh MBOAT4 (11741988_at) / RFU 11764193_at / Fold change /veh 11764193_at / RFU TMEM53 (11763286_at) / Fold change /veh TMEM53 (11763286_at) / RFU MAGEB2 (11727129_at) / Fold change /veh MAGEB2 (11727129_at) / RFU TMEM200A (11744735_a_at) / Fold change /veh TMEM200A (11744735_a_at) / RFU CCDC152 (11751479_a_at) / Fold change /veh CCDC152 (11751479_a_at) / RFU FAM211A (11726209_a_at) / Fold change /veh FAM211A (11726209_a_at) / RFU RGS16 (11746705_a_at) / Fold change /veh RGS16 (11746705_a_at) / RFU VCAN (11755009_s_at) / Fold change /veh VCAN (11755009_s_at) / RFU RHOB (11743442_s_at) / Fold change /veh RHOB (11743442_s_at) / RFU RGS16 (11720943_a_at) / Fold change /veh RGS16 (11720943_a_at) / RFU RGS16 (11720944_at) / Fold change /veh RGS16 (11720944_at) / RFU, VPS4B / Fold change vs veh, VPS4B / RFU, CREB1 / Fold change vs veh, CREB1 / RFU, DNAJC13 / Fold change vs veh, DNAJC13 / RFU, GNAQ / Fold change vs veh, GNAQ / RFU, CDK5R1 / Fold change vs veh, CDK5R1 / RFU, ZRANB3 / Fold change vs veh, ZRANB3 / RFU, CUL4A / Fold change vs veh, CUL4A / RFU, CCNY / Fold change vs veh, CCNY / RFU, UFL1 / Fold change vs veh, UFL1 / RFU, COG3 / Fold change vs veh, COG3 / RFU, DIAPH2 / Fold change vs veh, DIAPH2 / RFU, SKA2 / Fold change vs veh, SKA2 / RFU, AFF3 / Fold change vs veh, AFF3 / RFU, LMF1 / Fold change vs veh, LMF1 / RFU, IPO11 / Fold change vs veh, IPO11 / RFU, DFFB / Fold change vs veh, DFFB / RFU, FOXP1 / Fold change vs veh, FOXP1 / RFU, CARD8 / Fold change vs veh, CARD8 / RFU, STRN3 / Fold change vs veh, STRN3 / RFU, ADK / Fold change vs veh, ADK / RFU, RASSF2 / Fold change vs veh, RASSF2 / RFU, WIPF1 / Fold change vs veh, WIPF1 / RFU, LARP1B / Fold change vs veh, LARP1B / RFU, RASA1 / Fold change vs veh, RASA1 / RFU, RB1 / Fold change vs veh, RB1 / RFU, PPFIA1 / Fold change vs veh, PPFIA1 / RFU, MAT2A / Fold change vs veh, MAT2A / RFU, CCT5 / Fold change vs veh, CCT5 / RFU, WDR92 / Fold change vs veh, WDR92 / RFU, CUX1 / Fold change vs veh, CUX1 / RFU, TTC7A / Fold change vs veh, TTC7A / RFU, TMEM135 / Fold change vs veh, TMEM135 / RFU, DEPTOR / Fold change vs veh, DEPTOR / RFU, CPM / Fold change vs veh, CPM / RFU, DNAJB6 / Fold change vs veh, DNAJB6 / RFU, CACNA2D3 / Fold change vs veh, CACNA2D3 / RFU, DTX4 / Fold change vs veh, DTX4 / RFU, TFCP2 / Fold change vs veh, TFCP2 / RFU, GMCL1 /// GMCL1P1 / Fold change vs veh, GMCL1 /// GMCL1P1 / RFU, AEBP2 / Fold change vs veh, AEBP2 / RFU, SNHG1 /// SNORD22 /// SNORD25 /// SNORD26 /// SNORD27 /// SNORD28 /// SNORD29 /// SNORD31 / Fold change vs veh, SNHG1 /// SNORD22 /// SNORD25 /// SNORD26 /// SNORD27 /// SNORD28 /// SNORD29 /// SNORD31 / Fold change (Aza/veh), C12orf56 (ProbeSet 11735607_a_at) / Fold change (ACY-1035/veh), C12orf56 (ProbeSet 11735607_a_at) / Fold change (Aza/veh), FGFR1OP (ProbeSet 11751329_s_at) / Fold change (ACY-1035/veh), FGFR1OP (ProbeSet 11751329_s_at) / Fold change (Aza/veh), VPS36 (ProbeSet 11739960_a_at) / Fold change (ACY-1035/veh), VPS36 (ProbeSet 11739960_a_at) / RFU SYPL1 (11715823_x_at) / Fold change /veh SYPL1 (11715823_x_at) / RFU IGFBP7 (11715501_s_at) / Fold change /veh IGFBP7 (11715501_s_at) / RFU REEP3 (11722064_at) / Fold change /veh REEP3 (11722064_at) / RFU IGLL1 (11728026_x_at) / Fold change /veh IGLL1 (11728026_x_at): dose or concentration left out as unconfirmed
Conditions: ProbeSet 11732154_at; LIST B

Nc1ncn([C@@H]2O[C@H](CO)[C@@H](O)[C@H]2O)c(=O)n1 [azacitidine]
Fold change vs veh, OGT: 0.90
